Some results are limits rather than exact numbers.

The first assay concerns hypoxia-inducible endogenous VEGF expression in HeLa cells. As to the kind of experiment: Hypoxia-inducible endogenous VEGF expression, VEGF ELISA of conditioned media (dose-response EC50). In kind it is cell-based. Particulars: HeLa cells under hypoxic conditions. An outline of the steps: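 HeLa cells were cultured 24-48 h under hypoxia (1% O2, 5% CO2, balance N2) with or without compound. Conditioned-media VEGF protein was measured by ELISA against a standard curve. EC50 and CC50 come from percentage-inhibition curves over, e.g., seven concentrations, with maximal inhibition set at 100%.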
On the technique in general: In an ELISA, binding on a coated surface is turned into a signal by an enzyme label.
The compound `CS(=O)(=O)c1ccc(C2c3[nH]c4ccc(Cl)cc4c3CCN2C(=O)N2CCOCC2)cc1` (stereo not shown) [Compound 361] returned an EC50 of 8 to 40 nM.
Still for that read-out and setting: the figure for `COCCOc1ccc(C2c3[nH]c4ccc(Cl)cc4c3CCN2C(=O)Oc2ccc(F)cc2)cc1` (stereo not shown) [Compound 388] is below 8 nM.

The same assay, now with this note: HeLa cells, hypoxic conditions (1% O2).
Turning to `Cc1ccc(C2c3[nH]c4ccc(Br)cc4c3CCN2C(=O)Oc2ccc(F)cc2)cc1` (stereo not shown) [Compound 403], the EC50 is below 8 nM.
Turning to `COc1ccc(C2c3[nH]c4ccc(Cl)cc4c3CCN2C(=O)Oc2ccc(F)cc2)cc1` (stereo not shown) [Compound 410], the EC50 was below 8 nM.

Still in this assay, the particulars now being: Homo sapiens, HeLa cells under hypoxic conditions.
`COc1ccc(C2c3[nH]c4ccc(C)cc4c3CCN2c2cnccn2)cc1` (stereo not shown) [Compound 343]: the EC50 is above 1000 nM.
Same read-out and setting: the figure for `Cc1ccc2[nH]c3c(c2c1)CCN(C(=O)Oc1ccc(Cl)cc1)C3c1ccc(C(C)C)cc1` (stereo not shown) [Compound 344] is 8 to 40 nM; for `Cc1ccc2[nH]c3c(c2c1)CCN(c1ncccn1)C3c1ccc(C(C)C)cc1` (stereo not shown) [Compound 345] it is 8 to 40 nM; for `O=C(Oc1ccc(Cl)cc1)N1CCc2c([nH]c3ccc(Cl)cc23)C1c1ccc(S(=O)(=O)N2CCOCC2)cc1` (stereo not shown) [Compound 346] it is 8 to 40 nM.
`Cc1ccc(C2c3[nH]c4ccc(Cl)cc4c3CCN2C(=O)Oc2ccc(Cl)cc2)cc1` (stereo not shown) [Compound 347]: the EC50 is below 8 nM.
Compound `CC(C)c1ccc(C2c3[nH]c4ccc(Cl)cc4c3CCN2C(=O)Oc2ccc(Cl)cc2)cc1` (stereo not shown) [Compound 348] showed an EC50 below 8 nM.
`O=C(Oc1ccc(Cl)cc1)N1CCc2c([nH]c3ccc(Cl)cc23)C1c1ccc2c(c1)OCO2` (stereo not shown) [Compound 349] yielded an EC50 of 8 to 40 nM.
The same measure, in the same setting: the figure for `N#Cc1ccc(C2c3[nH]c4ccc(Cl)cc4c3CCN2C(=O)Oc2ccc(Cl)cc2)cc1` (stereo not shown) [Compound 350] is below 8 nM; for `O=C(Oc1ccc(Cl)cc1)N1CCc2c([nH]c3ccc(Cl)cc23)C1c1ccc(Cl)cc1` (stereo not shown) [Compound 351] it is 8 to 40 nM; for `CC(C)c1ccc(C2c3[nH]c4ccc(Cl)cc4c3CCN2c2ncccn2)cc1` (stereo not shown) [Compound 352] it is 8 to 40 nM.
With `Cc1ccc(C2c3[nH]c4ccc(Br)cc4c3CCN2C(=O)Oc2ccc(Cl)cc2)cc1` (stereo not shown) [Compound 353], the EC50 is below 8 nM.
On the same count and under the same terms, for `CC(C)c1ccc(C2c3[nH]c4ccc(Br)cc4c3CCN2C(=O)Oc2ccc(Cl)cc2)cc1` (stereo not shown) [Compound 354] the value was below 8 nM.
The same measure, in the same setting: for `COc1ccc(C2c3[nH]c4ccc(Br)cc4c3CCN2C(=O)Oc2ccc(Cl)cc2)cc1` (stereo not shown) [Compound 355] the value was below 8 nM; for `Clc1ccc2[nH]c3c(c2c1)CCN(c1ncccn1)C3c1ccc(OCCN2CCOCC2)cc1` (stereo not shown) [Compound 356], 200 to 1000 nM; for `Brc1ccc2[nH]c3c(c2c1)CCN(c1ncccn1)C3c1ccc(OCCN2CCOCC2)cc1` (stereo not shown) [Compound 357], 40 to 200 nM.
Regarding `CCOC(=O)N1CCc2c([nH]c3ccc(Cl)cc23)C1c1ccc(S(C)(=O)=O)cc1` (stereo not shown) [Compound 358], the EC50 lay within 40 to 200 nM.
`COc1ccc(OC(=O)N2CCc3c([nH]c4ccc(Cl)cc34)C2c2ccc(S(C)(=O)=O)cc2)cc1` (stereo not shown) [Compound 359] registered an EC50 of 40 to 200 nM.
Compound `CS(=O)(=O)c1ccc(C2c3[nH]c4ccc(Cl)cc4c3CCN2C(=O)Oc2ccc(Cl)cc2)cc1` (stereo not shown) [Compound 360] showed an EC50 of 8 to 40 nM.
For the compound `CC(C)(C)OC(=O)N1CCc2c([nH]c3ccc(Cl)cc23)C1c1ccc2c(c1)OCO2` (stereo not shown) [Compound 362], the EC50 was below 8 nM.
Compound `Clc1ccc2[nH]c3c(c2c1)CCNC3c1ccc(OCCN2CCOCC2)cc1` (stereo not shown) [Compound 363] showed a concentration giving a half-maximal response (EC50) above 1000 nM.
Same read-out and setting: for `CCOC(=O)COc1ccc(C2c3[nH]c4ccc(Cl)cc4c3CCN2C(=O)OCC)cc1` (stereo not shown) [Compound 365] the value was 40 to 200 nM; for `O=C(COc1ccc(C2c3[nH]c4ccc(Cl)cc4c3CCN2C(=O)Oc2ccccc2)cc1)Oc1ccccc1` (stereo not shown) [Compound 366], above 1000 nM.
Turning to `COc1ccc(C2c3[nH]c4ccc(Cl)cc4c3CCN2C(=O)CCCl)cc1` (stereo not shown) [Compound 367], the EC50 lay within 8 to 40 nM.
For `COc1ccc(C2c3[nH]c4ccc(Cl)cc4c3CCN2C(=O)Cc2ccccc2)cc1` (stereo not shown) [Compound 368], the EC50 lay within 200 to 1000 nM.
Regarding `COC(=O)CCC(=O)N1CCc2c([nH]c3ccc(Cl)cc23)C1c1ccc(OC)cc1` (stereo not shown) [Compound 369], the EC50 is 200 to 1000 nM.
As for `COc1ccc(C2c3[nH]c4ccc(Cl)cc4c3CCN2C(=O)C(C)OC(C)=O)cc1` (stereo not shown) [Compound 370], the EC50 is below 8 nM.
`COc1ccc(C2c3[nH]c4ccc(Cl)cc4c3CCN2C(=O)c2ccc(F)c(Cl)c2)cc1` (stereo not shown) [Compound 371] registered an EC50 of 40 to 200 nM.
On the same count and under the same terms, the figure for `COc1ccc(C2c3[nH]c4ccc(Cl)cc4c3CCN2S(=O)(=O)c2ccccc2Cl)cc1` (stereo not shown) [Compound 372] is above 1000 nM; for `COc1ccc(C2c3[nH]c4ccc(Cl)cc4c3CCN2C(=O)c2ccc(F)c(F)c2F)cc1` (stereo not shown) [Compound 373] it is 40 to 200 nM; for `COc1ccc(C2c3[nH]c4ccc(Cl)cc4c3CCN2C(=O)Cc2cccs2)cc1` (stereo not shown) [Compound 374] it is 40 to 200 nM.
For `COc1ccc(C2c3[nH]c4ccc(Cl)cc4c3CCN2C(=O)C(C)Oc2ccccc2)cc1` (stereo not shown) [Compound 375], the EC50 is 200 to 1000 nM.
The compound `COCC(=O)N1CCc2c([nH]c3ccc(Cl)cc23)C1c1ccc(OC)cc1` (stereo not shown) [Compound 376] yielded an EC50 of 200 to 1000 nM.
Same read-out and setting: for `COc1cccc(C2NCCc3c2[nH]c2ccc(Br)cc32)c1O` (stereo not shown) [Compound 377] the value was above 1000 nM; for `Oc1ccccc1C1NCCc2c1[nH]c1ccc(Br)cc21` (stereo not shown) [Compound 378], above 1000 nM.
In the case of `COc1ccc(C2NCCc3c2[nH]c2ccc(Br)cc32)cc1O` (stereo not shown) [Compound 379], the EC50 is above 1000 nM.
For the compound `Oc1c(F)cccc1C1NCCc2c1[nH]c1ccc(Br)cc21` (stereo not shown) [Compound 380], the EC50 was above 1000 nM.
`Oc1ccc(Cl)cc1C1NCCc2c1[nH]c1ccc(Br)cc21` (stereo not shown) [Compound 381] showed an EC50 above 1000 nM.
As for `Oc1ccc(Br)cc1C1NCCc2c1[nH]c1ccc(Br)cc21` (stereo not shown) [Compound 382], the EC50 is above 1000 nM.
The compound `CCSC(=S)N1CCc2c([nH]c3ccc(Cl)cc23)C1c1ccc(OC)cc1` (stereo not shown) [Compound 383] showed an EC50 below 8 nM.
On to `COc1ccc(C2c3[nH]c4ccc(Cl)cc4c3CCN2C(=S)SC)cc1` (stereo not shown) [Compound 384], for which the 50% effective concentration (EC50) was below 8 nM.
Same read-out and setting: for `COCCOC(=O)N1CCc2c([nH]c3ccc(Cl)cc23)C1c1ccc(OCCCn2ccnc2)cc1` (stereo not shown) [Compound 385] the value was 8 to 40 nM; for `COC(=O)N1CCc2c([nH]c3ccc(Cl)cc23)C1c1ccc(OCCCn2ccnc2)cc1` (stereo not shown) [Compound 386], below 8 nM; for `CCOC(=O)N1CCc2c([nH]c3ccc(Cl)cc23)C1c1cccc(CN2CCN(CCCN(C)C)CC2)c1` (stereo not shown) [Compound 389], below 8 nM.
With `CCOC(=O)N1CCc2c([nH]c3ccc(Cl)cc23)C1c1ccc(OCCCn2cncn2)cc1` (stereo not shown) [Compound 390], the concentration for a half-maximal effect (EC50) was below 8 nM.
For `O=C(Oc1ccc(Cl)cc1)N1CCc2c([nH]c3ccc(Cl)cc23)C1c1ccc(OCCCn2cncn2)cc1` (stereo not shown) [Compound 391], the EC50 was below 8 nM.
`CCCOC(=O)N1CCc2c([nH]c3ccc(Cl)cc23)C1c1ccc(OCCOC)cc1` (stereo not shown) [Compound 392]: the EC50 is below 8 nM.
For `CCOC(=O)N1CCc2c([nH]c3ccc(Br)cc23)C1c1cnc(SC)nc1` (stereo not shown) [Compound 393], the EC50 is below 8 nM.
Compound `CN(C)c1ncc(C2c3[nH]c4ccc(Br)cc4c3CCN2c2ncccn2)cn1` (stereo not shown) [Compound 394] yielded a 50% effective concentration (EC50) below 8 nM.
`COC(=O)c1ccc(C2c3[nH]c4ccc(Cl)cc4c3CCN2C(=O)Oc2ccc(F)cc2)cc1` (stereo not shown) [Compound 395] returned an EC50 below 8 nM.
For the compound `C=CCOc1ccc(C2c3[nH]c4ccc(Cl)cc4c3CCN2C(=O)OCC)cc1` (stereo not shown) [Compound 396], the EC50 is below 8 nM.

Still in this assay, the particulars now being: Homo sapiens, HeLa cells, hypoxic conditions (1% O2).
Consider `O=C(Oc1ccc(F)cc1)N1CCc2c([nH]c3ccc(Br)cc23)C1c1ccc(C(F)(F)F)cc1` (stereo not shown) [Compound 397], for which the EC50 was below 8 nM.
The same measure, in the same setting: for `Cc1ccc(C2c3[nH]c4ccc(Br)cc4c3CCN2C(=O)Oc2ccc(F)cc2)cc1` (stereo not shown) [Compound 398] the value was below 8 nM.
`C=CCOc1ccc(C2c3[nH]c4ccc(Cl)cc4c3CCN2C(=O)OCCF)cc1` (stereo not shown) [Compound 399] gave an EC50 below 8 nM.
Same read-out and setting: the figure for `C=CCOc1ccc(C2c3[nH]c4ccc(Cl)cc4c3CCN2C(=O)Oc2ccc(Cl)cc2)cc1` (stereo not shown) [Compound 400] is below 8 nM; for `COc1ccc(C2c3[nH]c4ccc(Cl)cc4c3CCN2C(=O)Oc2ccc(F)cc2)cc1` (stereo not shown) [Compound 401] it is below 8 nM.
Regarding `CCOC(=O)N1CCc2c([nH]c3ccc(Cl)cc23)C1c1ccc(OCCOCCOC)cc1` (stereo not shown) [Compound 404], the EC50 is below 8 nM.
`O=C(Oc1ccc(Cl)cc1)N1CCc2c([nH]c3ccc(Br)cc23)C1c1ccc(C(F)(F)F)cc1` (stereo not shown) [Compound 405] gave an EC50 below 8 nM.
In turn, `C=CCOc1ccc(C2c3[nH]c4ccc(Cl)cc4c3CCN2C(=O)OCCC)cc1` (stereo not shown) [Compound 406] returned an EC50 below 8 nM.
For the compound `COCCOc1ccc(C2c3[nH]c4ccc(Cl)cc4c3CCN2C(=O)OCC(C)C)cc1` (stereo not shown) [Compound 407], the EC50 is below 8 nM.
Still for that read-out and setting: for `C=CCOc1ccc(C2c3[nH]c4ccc(Cl)cc4c3CCN2C(=O)OC(C)C)cc1` (stereo not shown) [Compound 408] the value was below 8 nM; for `C=CCOc1ccc(C2c3[nH]c4ccc(Cl)cc4c3CCN2C(=O)Oc2ccc(F)cc2)cc1` (stereo not shown) [Compound 409], below 8 nM; for `COCCOc1ccc(C2c3[nH]c4ccc(Cl)cc4c3CCN2C(=O)OC(C)C)cc1` (stereo not shown) [Compound 411], below 8 nM.
`C=CCOc1ccc(C2c3[nH]c4ccc(Cl)cc4c3CCN2C(=O)OCc2ccccc2)cc1` (stereo not shown) [Compound 412] gave an EC50 below 8 nM.
In the case of `C=CCOc1ccc(C2c3[nH]c4ccc(Cl)cc4c3CCN2C(=O)Oc2ccccc2)cc1` (stereo not shown) [Compound 413], the EC50 was below 8 nM.
As to `C=CCOc1ccc(C2c3[nH]c4ccc(Cl)cc4c3CCN2C(=O)OCC(C)C)cc1` (stereo not shown) [Compound 414], the EC50 is below 8 nM.
In turn, `CC(=O)N1CCN(CC(O)COc2ccc(C3c4[nH]c5ccc(Cl)cc5c4CCN3C(=O)Oc3ccc(Cl)cc3)cc2)CC1` (stereo not shown) [Compound 415] returned an EC50 below 8 nM.

Broadly, the EC50 is the concentration that produces a half-maximal response. Read a low EC50 as greater potency.
